Assays:
[1] = test system: Palmer amaranth; test: Post-emergence application in Palmer amaranth under greenhouse conditions (Example 7); assay type: in vivo; settings: 24 days after application
Excerpt: (§1) The following testing protocol was employed to evaluate the post-emergence application of herbicides and herbicide combinations as described in the following examples unless otherwise specified. The weed species to be treated were planted in 3.5 inch pots containing redi-earth potting mix and grown under greenhouse conditions. When the weed species reached a height of about four inches, herbicide was applied at the specified application rate using a track sprayer with a flat even nozzle type, 9501E nozzle size, and spray pressure of 165 kPa. After the application of the herbicide(s), the pots were only sub-irrigated as needed. Throughout the test period, temperature was maintained from about 20° C. to about 30° C. and relative humidity was maintained at about 30%. The plants were rated visually and percentage of weed control was determined for each treatment at 15 to 21 days after herbicide application.
Post-emergence application of several herbicides and herbicide combinations was evaluated in Palmer amaranth under greenhouse conditions. The plants were rated visually and percentage of weed control was determined at 24 days after herbicide application. The herbicides and herbicide combinations evaluated are listed in Table 7-A below together with the corresponding percent control data. The data represent an average value (n=6).
The results of the analysis are reported below in Table 7-B (glyphosate+dicamba), Table 7-C(glyphosate+metribuzin), and Table 7-D (dicamba+metribuzin).

[2] = test system: velvetleaf; test: Post-emergence application in velvetleaf under greenhouse conditions (Example 8); assay type: in vivo
Excerpt: as §1
Post-emergence application of several herbicides and herbicide combinations was evaluated in velvetleaf under greenhouse conditions. The plants were rated visually and percentage of weed control was determined at 24 days after herbicide application. The herbicides and herbicide combinations evaluated are listed in Table 8-A below together with the corresponding percent control data. The data represent an average value (n=6).
The results of the analysis are reported below in Table 8-B (glyphosate+dicamba), Table 8-C(glyphosate+metribuzin), and Table 8-D (dicamba+metribuzin).

Q: Which results are given for O=C(O)CNCP(=O)(O)O [Glyphosate]?
A: PERCENT CONTROL ([1]; 560 g/ha): 20.0%; PERCENT CONTROL ([1]; 1120 g/ha): 50.0%; PERCENT CONTROL (ACTUAL) ([2]; 560 g/ha, 24 days after application): 81.0%; PERCENT CONTROL (ACTUAL) ([2]; 1120 g/ha, 24 days after application): 100.0%; PERCENT CONTROL (ACTUAL) ([2]; Table 8-C, velvetleaf, 24 days, dose 560 g/ha): 81.0%; PERCENT CONTROL (ACTUAL) ([2]; Table 8-C, velvetleaf, 24 days, dose 1120 g/ha): 100.0%
